Test results from US20220280468A1, “METHOD FOR PREVENTING OCCURRENCE OF CARDIOVASCULAR EVENT IN MULTIPLE RISK PATIENT” (MOCHIDA PHARMACEUTICAL CO., LTD., priority 2006, published 2022).

Legend:
[1] = system: cardiovascular events in hypercholesterolemia patients; assay: JELIS partial analysis: occurrence of cardiovascular events in primary prevention hypercholesterolemia patients by risk factors; type: in vivo, human; conditions: for Incidence in the EPA-E group (cases of occurrence/all cases) / Incidence in the EPA-E group (%): with HMG-CoA RI base drug; for Rate of suppression of cardiovascular event occurrence after correcting the dispersion between groups: end of trial
Source text: This trial corresponds to a partial analysis of the results obtained in JELIS (Japan EPA Lipid Intervention Study) which is a large scale clinical trial of high purity EPA preparation which was presented in The […] 2005 Annual Meeting (for general information on JELIS, see Medical Tribune, issue of Nov. 17, 2005, Feature article 3, pp. 75-76).
More specifically, for the EPA-E group (7503 cases) and the control group (7478 cases) evaluated for the primary prevention effect in the 18,645 subject patients of the JELIS trial (EPA-E group (9,326 cases) and control group (9,319 cases)), occurrence of the cardiovascular events was observed and analysed for 5 years from the start of the administration in relation to the number of risk factors at the registration as defined by the following (1) to (4): • (1) obesity: body mass index (BMI) of at least 25; • (2) hypertension or prehypertension: systolic blood pressure (SBP) of at least 140 mmHg or diastolic blood pressure (DBP) of at least 90 mmHg; • (3) diabetes, prediabetes, or abnormal glucose tolerance: fasting blood glucose (FBS) of at least 126 mg/dL or hemoglobin Alc (HbAlc) of at least 6.5%; • (4) hypertriglyceridemia or low HDL cholesterolemia: a triglyceride (TG) of at least 150 mg/dL or a HDL-C of less than 40 mg/dL.
The EPA-E group was orally administered with Epadel (Mochida Pharmaceutical Co., Ltd.) typically at an adult dose of 600 mg per administration and 3 times a day after the meal. However, in the case of abnormal serum TG, the dose could be increased to 900 mg per administration and 3 times a day. In both groups, pravastatin sodium (Mevalotin™ tablets and fine granules, Daiichi Sankyo Co., Ltd.), simvastatin (Lipovas™ tablets, Banyu Pharmaceutical Co., Ltd.), or atorvastatin calcium hydrate (Lipitor™ tablets, Astellas Pharma Inc. and Pfizer Inc.) was used for the base drug, and these drugs were orally administered according to the prescribed dosage regimen. More specifically, pravastatin sodium was orally administered at a daily dose of 10 to 20 mg in a single dose or two divided doses; simvastatin was orally administered at a daily dose of 5 to 20 mg in a single dose; atorvastatin calcium hydrate was orally administered at a daily dose of 10 to 40 mg in a single dose.
The number of occurrence of cardiovascular events in the observation period of 5 years, incidence (%), and rate of suppression of the incidence of the cardiovascular events in the EPA-E group with respect to the control group are shown in Table 1 for each number of risk factors. The rate of suppression of the incidence of the cardiovascular events was calculated by the formula: [{(incidence in the control group)−(incidence in the EPA-E group)}/incidence in the control group]×100.
From the results of the trial as described above, the number of occurrence of cardiovascular events in the observation period of 5 years, incidence (%), and rate of suppression of the incidence of the cardiovascular events in the EPA-E group with respect to the control group were calculated for the male patients having at least two risk factors. (The calculation was conducted by the same procedure as described above.)
(The calculation was conducted by the same procedure as described above.)

[2] = system: cardiac events and serum lipids in hyperlipidemia patients; conditions: cited from earlier work
[3] = 1-2 risk factors, 5 years observation
[4] = 1-3 risk factors, 5 years observation
[5] = 1-4 risk factors, 5 years observation
[6] = 1 risk factor, 5 years observation
[7] = 2-3 risk factors, 5 years observation
[8] = 2-4 risk factors, 5 years observation
[9] = 2 risk factors, 5 years observation
[10] = 3-4 risk factors, 5 years observation
[11] = 3 risk factors, 5 years observation
[12] = TG of at least 150 mg/dL and HDL-C of less than 40 mg/dL
[13] = male patients with two or more risk factors
[14] = male patients, 2-4 risk factors, 5 years observation
[15] = patients with TG of at least 150 mg/dL and HDL-C of less than 40 mg/dL, 5 years
[16] = EPA-E group (with HMG-CoA RI), Non-Patent Document 3

CC/C=C\C/C=C\C/C=C\C/C=C\C/C=C\CCCC(=O)OCC [EPA-E, ethyl icosapentate]
Rate of Suppression of cardiovascular event incidence vs control group ([1]; 0 risk factors, 5 years): 22%
Incidence in the EPA-E group (cases of occurrence/all cases) ([1]; 0 risk factors, 5 years observation): 11/1326
Rate of Suppression of cardiovascular event incidence vs control group ([1]; 1-2 risk factors, 5 years): 21%
Incidence in the EPA-E group (%) [1, 3]: (1.3) %
Incidence in the EPA-E group (cases of occurrence/all cases) [1, 3]: 59/4706
Rate of Suppression of cardiovascular event incidence vs control group ([1]; 1-3 risk factors, 5 years): 18%
Incidence in the EPA-E group (%) [1, 4]: (1.5) %
Incidence in the EPA-E group (cases of occurrence/all cases) [1, 4]: 87/5935
Rate of Suppression of cardiovascular event incidence vs control group ([1]; 1-4 risk factors, 5 years): 18%
Incidence in the EPA-E group (%) [1, 5]: (1.5) %
Incidence in the EPA-E group (cases of occurrence/all cases) [1, 5]: 93/6177
Rate of Suppression of cardiovascular event incidence vs control group ([1]; 1 risk factor, 5 years): 15%
Incidence in the EPA-E group (%) [1, 6]: (1.0) %
Incidence in the EPA-E group (cases of occurrence/all cases) [1, 6]: 25/2468
Rate of Suppression of cardiovascular event incidence vs control group ([1]; 2-3 risk factors, 5 years): 16%
Incidence in the EPA-E group (%) [1, 7]: (1.8) %
Incidence in the EPA-E group (cases of occurrence/all cases) [1, 7]: 62/3467
Rate of Suppression of cardiovascular event incidence vs control group ([1]; 2-4 risk factors, 5 years): 18%
Incidence in the EPA-E group (%) [1, 8]: (1.8) %
Incidence in the EPA-E group (cases of occurrence/all cases) [1, 8]: 68/3709
Rate of Suppression of cardiovascular event incidence vs control group ([1]; 2 risk factors, 5 years): 23%
Incidence in the EPA-E group (%) [1, 9]: (1.5) %
Incidence in the EPA-E group (cases of occurrence/all cases) [1, 9]: 34/2238
Rate of Suppression of cardiovascular event incidence vs control group ([1]; 3-4 risk factors, 5 years): 14%
Incidence in the EPA-E group (%) [1, 10]: (2.3) %
Incidence in the EPA-E group (cases of occurrence/all cases) [1, 10]: 34/1471
Rate of Suppression of cardiovascular event incidence vs control group ([1]; 3 risk factors, 5 years): 5%
Incidence in the EPA-E group (%) [1, 11]: (2.3) %
Incidence in the EPA-E group (cases of occurrence/all cases) [1, 11]: 28/1229
Rate of Suppression of cardiovascular event incidence vs control group ([1]; 4 risk factors, 5 years): 40%
Incidence in the EPA-E group (cases of occurrence/all cases) ([1]; 4 risk factors, 5 years observation): 6/242
Effect on occurrence of cardiovascular events (in words) [1, 12]: significantly suppressed occurrence of cardiovascular events
Occurrence of fatal events in the EPA-E group [1, 12]: occurrence of fatal events was not found
Time from start of administration after which decrease in cardiovascular event incidence was significant [1, 12]: ≥ 2 years
Rate of suppression of cardiovascular event occurrence after correcting the dispersion between groups ([1]; TG of at least 150 mg/dL and HDL-C of less than 40 mg/dL, FIG. 2): 53%
Effect on occurrence of cardiovascular events (in words) [1, 13]: significantly suppressed the occurrence of cardiovascular events
Time from start of administration after which decrease in cardiovascular event incidence was significant [1, 13]: ≥ 2 years
Rate of suppression of cardiovascular event occurrence after correcting the dispersion between groups ([1]; male patients with two or more risk factors, FIG. 1): 55%
Incidence in the EPA-E group (%) [1, 14]: (1.8) %
Incidence in the EPA-E group (cases of occurrence/all cases) [1, 14]: 19/1065
Rate of Suppression of cardiovascular event incidence vs control group ([1]; male patients, 2-4 risk factors, 5 years, uncorrected): 56%
Suppression of occurrence of cardiovascular events vs control group ([1]; patients with HDL-C of less than 40 mg/dL, uncorrected): 35%
Rate of Suppression of cardiovascular event incidence vs control group ([1]; patients with TG of at least 150 mg/dL and HDL-C of less than 40 mg/dL, 5 years, uncorrected): 48%
Incidence in the EPA-E group (%) [1, 15]: (2.3) %
Incidence in the EPA-E group (cases of occurrence/all cases) [1, 15]: 11/482
Suppression of occurrence of cardiovascular events vs control group ([1]; patients with triglyceride of at least 150 mg/dL, uncorrected): 15%
Change of HDL-cholesterol value ([2]; EPA-E group (with HMG-CoA RI), Non-Patent Document 2): slight
Change in HDL-C [2, 16]: little change
Decrease of LDL-cholesterol [2, 16]: 25%
Decrease of total cholesterol [2, 16]: 19%
Reduction of LDL-cholesterol value ([2]; EPA-E group (with HMG-CoA RI), after 5 years, Non-Patent Document 2): 26%
Decrease of triglyceride ([2]; EPA-E group (with HMG-CoA RI), significant, Non-Patent Document 3): 9%
Incidence of events vs control group (in words) ([2]; analysis limited to the primary prevention patients): this difference was not statistically significant
Suppression of cardiac events (in words) ([2]; total of primary and secondary prevention patients, and secondary prevention patients): statistically significant suppression
